Reference: US20040259765A1, “Formulations of non-steroidal anti-inflammatory agents to treat pathologic ocular angiogenesis” (priority 2003, published 2004)

Tested on: retinal neovascularization
Experiment: rat pup model of retinopathy of prematurity (oxygen-induced retinopathy)
Assay type: in vivo
Details: local administration, FIG. 1
Protocol: FIG. 1. […] Anecortave acetate was tested for its angiostatic efficacy in a rat pup model of retinopathy of prematurity (Penn, at al., Investigative Ophthalmology & Visual Science, “The Effect of an Angiostatic Steroid on Neovascularization in a Rat Model of Retinopathy of Prematurity,” Vol. 42(1):283-290, January 2001). Newborn rat pups were placed in an atmosphere of varying oxygen content. The rats received a single intravitreal injection of vehicle or anecortave acetate (500 μg) upon return to room air (day 14) or 2 days later (day 16). There was significant retinal neovascularization in the rats that received vehicle injections.

## CC(=O)OCC(=O)[C@@]1(O)CC[C@H]2[C@@H]3CCC4=CC(=O)CC[C@]4(C)C3=CC[C@@]21C [Anecortave acetate, 4,9(11)-pregnadien-17α,21-diol-3,20dione-21-acetate]
  preretinal neovascularization (neovascular score): inhibits
